In ChEMBL document CHEMBL1126778, “Adenosine A1 antagonists. 3. Structure-activity relationships on amelioration against scopolamine- or N6-((R)-phenylisopropyl)adenosine-induced cognitive disturbance” (J Med Chem, 1993):

Key:
Mus musculus [1] = experiment: Acquisition time in (R)-PIA) induced avoidance test (performed in mice) for antagonistic activity after p.o. administration of 0.31 mg/kg; type: functional; conditions: route oral
Rattus norvegicus [2] = experiment: Acquisition time in Scopolamine induced avoidance test (performed in rat) for antagonistic activity after p.o. administration of 0.31 mg/kg; type: functional; conditions: route oral
Mus musculus [3] = experiment: Acquisition time in (R)-PIA) induced avoidance test (performed in mice) for antagonistic activity after peroral administration of 5 mg/kg; type: functional; conditions: route oral
Rattus norvegicus [4] = experiment: Retention time in Scopolamine induced avoidance test (performed in rat) for antagonistic activity after peroral administration of 5 mg/kg (n=15); type: functional, organism-based; parameters: dose 5 mg/kg
Mus musculus [5] = experiment: Tested for locomotor activity after oral administration of 10 mg/kg for 120 min; type: functional
Mus musculus [6] = experiment: Acquisition time in (R)-PIA) induced avoidance test (performed in mice) for antagonistic activity after peroral administration of 0.02 mg/kg; type: functional; conditions: route oral
Mus musculus [7] = experiment: Retention time in (R)-PIA) induced avoidance test (performed in mice) for antagonistic activity after peroral administration of 5 mg/kg; type: functional, organism-based; parameters: dose 5 mg/kg
Rattus norvegicus [8] = experiment: Retention time in Scopolamine induced avoidance test (performed in rat) for antagonistic activity after peroral administration of 0.02 mg/kg; type: functional, organism-based; parameters: dose 0.02 mg/kg
Mus musculus [9] = experiment: Retention time in (R)-PIA) induced avoidance test (performed in mice) for antagonistic activity after peroral administration of 0.31 mg/kg; type: functional, organism-based; parameters: dose 0.31 mg/kg
Rattus norvegicus [10] = experiment: Retention time in Scopolamine induced avoidance test (performed in rat) for antagonistic activity after p.o. administration of 0.31 mg/kg; type: functional, organism-based; parameters: dose 0.31 mg/kg
Rattus norvegicus [11] = experiment: Acquisition time in Scopolamine induced avoidance test (performed in rat) for antagonistic activity after peroral administration of 5 mg/kg; type: functional; conditions: route oral
Mus musculus [12] = experiment: Acquisition time in (R)-PIA) induced avoidance test (performed in mice) for antagonistic activity after peroral administration of 0.08 mg/kg; type: functional; conditions: route oral
Mus musculus [13] = experiment: Retention time in (R)-PIA) induced avoidance test (performed in mice) for antagonistic activity after peroral administration of 0.02 mg/kg; type: functional, organism-based; parameters: dose 0.02 mg/kg
Mus musculus [14] = experiment: Tested for locomotor activity after oral administration of […] for 120 min; type: functional
Rattus norvegicus [15] = experiment: Acquisition time in Scopolamine induced avoidance test (performed in rat) for antagonistic activity after peroral administration of 0.08 mg/kg; type: functional; conditions: route oral
Rattus norvegicus [16] = experiment: Acquisition time in Scopolamine induced avoidance test (performed in rat) for antagonistic activity after peroral administration of 0.02 mg/kg; type: functional; conditions: route oral
Mus musculus [17] = experiment: Acquisition time in (R)-PIA) induced avoidance test (performed in mice) for antagonistic activity after peroral administration of 1.25 mg/kg; type: functional; conditions: route oral
Mus musculus [18] = experiment: Retention time in (R)-PIA) induced avoidance test (performed in mice) for antagonistic activity after peroral administration of 1.25 mg/kg; type: functional, organism-based; parameters: dose 1.25 mg/kg
Rattus norvegicus [19] = experiment: Acquisition time in Scopolamine induced avoidance test (performed in rat) for antagonistic activity after peroral administration of 1.25 mg/kg; type: functional; conditions: route oral
Rattus norvegicus [20] = experiment: Retention time in Scopolamine induced avoidance test (performed in rat) for antagonistic activity after p.o. administration of 0.08 mg/kg; type: functional, organism-based; parameters: dose 0.08 mg/kg
Mus musculus [21] = experiment: Tested for locomotor activity after oral administration of 5 mg/kg for 120 min; type: functional
Mus musculus [22] = experiment: Retention time in (R)-PIA) induced avoidance test (performed in mice) for antagonistic activity after peroral administration of 0.08 mg/kg; type: functional, organism-based; parameters: dose 0.08 mg/kg
Mus musculus [23] = experiment: Retention time in (R)-PIA) induced avoidance test (performed in mice) for antagonistic activity after peroral administration of 20 mg/kg (n=15) (P<0.05); type: functional, organism-based; parameters: dose 20 mg/kg
Rattus norvegicus [24] = experiment: Acquisition time in Scopolamine induced avoidance test (performed in rat) for antagonistic activity after peroral administration of 0.31 mg/kg (n=18); type: functional; conditions: route oral
Rattus norvegicus [25] = experiment: Retention time in Scopolamine induced avoidance test (performed in rat) for antagonistic activity after peroral administration of 5 mg/kg (n=18) (P<0.05); type: functional, organism-based; parameters: dose 5 mg/kg
Rattus norvegicus [26] = experiment: Acquisition time in Scopolamine induced avoidance test (performed in rat) for antagonistic activity after peroral administration of 0.02 mg/kg (n=18); type: functional; conditions: route oral
Mus musculus [27] = experiment: Acquisition time in (R)-PIA) induced avoidance test (performed in mice) for antagonistic activity after peroral administration of 1.25 mg/kg (n=15); type: functional; conditions: route oral
Mus musculus [28] = experiment: Acquisition time in (R)-PIA) induced avoidance test (performed in mice) for antagonistic activity after peroral administration of 0.08 mg/kg (n=15); type: functional; conditions: route oral
Mus musculus [29] = experiment: Retention time in (R)-PIA) induced avoidance test (performed in mice) for antagonistic activity after peroral administration of 0.08 mg/kg (n=15) (P<0.005); type: functional, organism-based; parameters: dose 0.08 mg/kg
Rattus norvegicus [30] = experiment: Retention time in Scopolamine induced avoidance test (performed in rat) for antagonistic activity after peroral administration of 0.08 mg/kg (n=18) (P<0.05); type: functional, organism-based; parameters: dose 0.08 mg/kg
Mus musculus [31] = experiment: Acquisition time in (R)-PIA) induced avoidance test (performed in mice) for antagonistic activity after peroral administration of 5 mg/kg (n=15); type: functional; conditions: route oral
Rattus norvegicus [32] = experiment: Retention time in Scopolamine induced avoidance test (performed in rat) for antagonistic activity after peroral administration of 0.31 mg/kg (n=18) (P<0.005); type: functional, organism-based; parameters: dose 0.31 mg/kg
Rattus norvegicus [33] = experiment: Acquisition time in Scopolamine induced avoidance test (performed in rat) for antagonistic activity after peroral administration of 0.08 mg/kg (n=18); type: functional; conditions: route oral
Rattus norvegicus [34] = experiment: Retention time in Scopolamine induced avoidance test (performed in rat) for antagonistic activity after peroral administration of 0.02 mg/kg (n=18) (P<0.05); type: functional, organism-based; parameters: dose 0.02 mg/kg
Mus musculus [35] = experiment: Retention time in (R)-PIA) induced avoidance test (performed in mice) for antagonistic activity after peroral administration of 0.31 mg/kg (n=15) (P<0.01); type: functional, organism-based; parameters: dose 0.31 mg/kg
Rattus norvegicus [36] = experiment: Acquisition time in Scopolamine induced avoidance test (performed in rat) for antagonistic activity after peroral administration of 1.25 mg/kg (n=18); type: functional; conditions: route oral
Mus musculus [37] = experiment: Acquisition time in (R)-PIA) induced avoidance test (performed in mice) for antagonistic activity after peroral administration of 0.31 mg/kg (n=15); type: functional; conditions: route oral
Mus musculus [38] = experiment: Retention time in (R)-PIA) induced avoidance test (performed in mice) for antagonistic activity after peroral administration of 1.25 mg/kg (n=15) (P<0.005); type: functional, organism-based; parameters: dose 1.25 mg/kg
Rattus norvegicus [39] = experiment: Retention time in Scopolamine induced avoidance test (performed in […]) for antagonistic activity after peroral administration of 1.25 mg/kg (n=18) (P<0.05); type: functional, organism-based; parameters: dose 1.25 mg/kg
Rattus norvegicus [40] = experiment: Acquisition time in Scopolamine induced avoidance test (performed in rat) for antagonistic activity after peroral administration of 5 mg/kg (n=18); type: functional; conditions: route oral
Rattus norvegicus [41] = experiment: Acquisition time in Scopolamine induced avoidance test (performed in rat) for antagonistic activity after p.o. administration of 0.08 mg/kg; type: functional; conditions: route oral
Rattus norvegicus [42] = experiment: Acquisition time in Scopolamine induced avoidance test (performed in rat) for antagonistic activity after peroral administration of 20 mg/kg; type: functional; conditions: route oral
Rattus norvegicus [43] = experiment: Retention time in Scopolamine induced avoidance test (performed in rat) for antagonistic activity after peroral administration of 1.25 mg/kg; type: functional, organism-based; parameters: dose 1.25 mg/kg
Rattus norvegicus [44] = experiment: Acquisition time in Scopolamine induced avoidance test (performed in rat) for antagonistic activity after p.o. administration of 5 mg/kg; type: functional; conditions: route oral
Mus musculus [45] = experiment: Acquisition time in (R)-PIA) induced avoidance test (performed in mice) for antagonistic activity after peroral administration of 20 mg/kg; type: functional; conditions: route oral
Mus musculus [46] = experiment: Acquisition time in (R)-PIA) induced avoidance test (performed in mice) for antagonistic activity after p.o. administration of 1.25 mg/kg; type: functional; conditions: route oral
Mus musculus [47] = experiment: Retention time in (R)-PIA) induced avoidance test (performed in mice) for antagonistic activity after peroral administration of 20 mg/kg; type: functional, organism-based; parameters: dose 20 mg/kg
Rattus norvegicus [48] = experiment: Retention time in Scopolamine induced avoidance test (performed in rat) for antagonistic activity after peroral administration of 20 mg/kg (n=9); type: functional, organism-based; parameters: dose 20 mg/kg
Mus musculus [49] = experiment: Retention time in (R)-PIA) induced avoidance test (performed in mice) for antagonistic activity after p.o. administration of 1.25 mg/kg; type: functional, organism-based; parameters: dose 1.25 mg/kg
Rattus norvegicus [50] = experiment: Retention time in Scopolamine induced avoidance test (performed in […]) for antagonistic activity after peroral administration of 5 mg/kg; type: functional, organism-based; parameters: dose 5 mg/kg

Q: What does the source list for `CCCn1c(=O)c2nc(C(C3CC3)C3CC3)[nH]c2n(CCC)c1=O`?
A: Acquisition time (Mus musculus [1]): 21.7 s; Acquisition time (Rattus norvegicus [2]): 15.6 s; Acquisition time (Mus musculus [3]): 28.1 s; Retention time (Rattus norvegicus [4]): 120 s; Locomotor activity (Mus musculus [5]): 5371 Counts; Acquisition time (Mus musculus [6]): 32.9 s; Retention time (Mus musculus [7]): 248 s; Retention time (Rattus norvegicus [8]): 48.8 s; Retention time (Mus musculus [9]): 140 s; Retention time (Rattus norvegicus [10]): 218 s; Acquisition time (Rattus norvegicus [11]): 14.7 s; Acquisition time (Mus musculus [12]): 46.5 s; Retention time (Mus musculus [13]): 51.3 s; Locomotor activity (Mus musculus [14]): 4365 Counts; Acquisition time (Rattus norvegicus [15]): 19.3 s; Acquisition time (Rattus norvegicus [16]): 29.9 s; Acquisition time (Mus musculus [17]): 22.7 s; Retention time (Mus musculus [18]): 262 s; Acquisition time (Rattus norvegicus [19]): 20.4 s; Retention time (Rattus norvegicus [20]): 54.1 s; Locomotor activity (Mus musculus [21]): 5631 Counts; Retention time (Mus musculus [22]): 83.9 s

Q: What does the source list for `CCCn1c(=O)c2nc(C3CCC(=O)C3)[nH]c2n(CCC)c1=O` (stereo not given)?
A: Retention time (Mus musculus [23]): 319 s; Acquisition time (Rattus norvegicus [24]): 13.2 s; Retention time (Rattus norvegicus [25]): 75.9 s; Acquisition time (Rattus norvegicus [26]): 16.4 s; Locomotor activity (Mus musculus [5]): 8204 Counts; Acquisition time (Mus musculus [27]): 15.1 s; Acquisition time (Mus musculus [28]): 20.8 s; Retention time (Mus musculus [29]): 322 s; Retention time (Rattus norvegicus [30]): 126 s; Acquisition time (Mus musculus [31]): 15.1 s; Locomotor activity (Mus musculus [14]): 6134 Counts; Retention time (Rattus norvegicus [32]): 163 s; Acquisition time (Rattus norvegicus [33]): 12.8 s; Retention time (Rattus norvegicus [34]): 169 s; Retention time (Mus musculus [35]): 234 s; Acquisition time (Rattus norvegicus [36]): 11.4 s; Acquisition time (Mus musculus [37]): 22 s; Retention time (Mus musculus [38]): 339 s; Retention time (Rattus norvegicus [39]): 85.9 s; Acquisition time (Rattus norvegicus [40]): 9.8 s

Q: Which results are given for `CCCn1c(=O)c2c(nc(/C=C/c3ccc(OC)c(OC)c3)n2C)n(CCC)c1=O`?
A: Acquisition time (Mus musculus [1]): 22.7 s; Acquisition time (Rattus norvegicus [41]): 14.9 s; Acquisition time (Rattus norvegicus [2]): 11.8 s; Acquisition time (Rattus norvegicus [42]): 22.2 s; Acquisition time (Mus musculus [3]): 19.8 s; Retention time (Rattus norvegicus [43]): 20.3 s; Acquisition time (Rattus norvegicus [44]): 24.4 s; Acquisition time (Mus musculus [45]): 31.2 s; Acquisition time (Mus musculus [46]): 25.3 s; Retention time (Mus musculus [7]): 37.5 s; Retention time (Mus musculus [47]): 92.4 s; Retention time (Mus musculus [9]): 42.4 s; Retention time (Rattus norvegicus [48]): 15.6 s; Retention time (Mus musculus [49]): 65.3 s; Retention time (Rattus norvegicus [10]): 12.9 s; Acquisition time (Rattus norvegicus [19]): 10.1 s; Retention time (Rattus norvegicus [20]): 31.1 s; Retention time (Rattus norvegicus [50]): 4.9 s
